One series relates to MCF-7 cells. As to the kind of experiment: MTT cytotoxicity assay, MCF-7. It counts as cell-based, human. As to conditions: for IC50: Homo sapiens, MCF7, breast cancer MCF-7, MTT, 72 h. As to the method: (§1) These compounds were tested against breast MCF-7 and colorectal HCT-116 cell lines.
The human breast cancer cell line (MCF-7) used in the present study was obtained from Dr. Neamatallah’s lab. The cells were cultured in Dulbecco’s Modified Eagle Medium (DMEM) supplemented with 10% (v/v) fetal bovine serum (FBS), 10,000 units/mL penicillin/streptomycin, and 1% (v/v) L-glutamine at 37 °C in humidified 5% CO2 incubator.
(§2) The cytotoxicity activity was done by MTT assay. Breast MCF-7 and colorectal HCT-116 cancer cells were added at 1 × 10^5 cells/mL into a 96-well plate with three replicates, and incubated overnight for attachment at 37 °C in a 5% CO2 humidified atmosphere. Drug concentrations at six serial dilutions (100.0, 50.0, 10.0, 1.0, 0.5, and 0.1 μM) were added in triplicate and incubated at 37 °C and 5% CO2 for 72 h. Drugs were dissolved in 0.1% DMSO as a vehicle. Untreated cells were used as control. […] Thereafter, each well for each time point was removed and replaced with […] of full medium containing 10% 3-(4,5- dimethylthiaxolyl-2)-2,5-diphenyltetrazoliumbromide (MTT) (10 mg/mL). Then the media was removed and 100 µl of DMSO was added, and cells were incubated for a further 5 mins at 37 °C and 5% CO2. Plates were quantified using the SpectraMax M3 plate reader at 570 nm. The percentage inhibition was calculated as 100 − ((mean OD of treated cell × 100)/Mean OD of vehicle treated cells (DMSO)). All the experiments were repeated in at least three independent experiments (Table 2, Figure 3, Figure 4, Figure 5 and Figure 6).
For orientation: Tetrazolium dyes change colour on reduction, which living cells bring about.

The next series relates to HEK 293 cells. The series is described as follows: MTT assay on non-tumorigenic cell line HEK 293. It counts as cell-based. To be noted: HEK293, normal human embryonic kidney cells.
For another series, the system named is HCT-116 cells. The series is described as follows: MTT cytotoxicity assay, HCT-116. It counts as cell-based, human. As to conditions: for IC50: colorectal cancer HCT-116, MTT, 72 h; for fold activity compared to 5-fluorouracil, HCT-116 / fold activity compared to tamoxifen, HCT-116: ratio of IC50, HCT-116. As to the method: as §1, §2
Series [1] has as its target thymidylate synthase (TS) (Homo sapiens, UniProt P04818). As to the kind of experiment: In vitro thymidylate synthase enzyme assay. It counts as biochemical. As to conditions: for fold activity compared to pemetrexed, TS: ratio of IC50, TS enzyme. As to the method:
The inhibition of this enzyme plays a vital role in chemotherapy treatment. […] This inactivation of dTMP results in a reduction of deoxythymidine triphosphate (dTTP), leading to the disruption of DNA synthesis and cessation of cell growth and proliferation (Figure 7).
A thymidylate synthase enzymatic assay was carried out according to the reported method. It involves a mixture containing 2-mercaptoethanol (0.1 M), (6R,S)-tetrahydrofolate (0.0003 M), formaldehyde (0.012 M), MgCl2 (0.02 M), dUMP (0.001 M), TrisHCl (0.04 M), and NaEDTA (0.00075 M).This assay was done spectrophotometrically at 30° C and pH 7.4. The reaction was initiated by the addition of an amount of enzyme, giving a change in absorbance at 340 nm of 0.016/min in the absence of inhibitor. The percent inhibition was determined at a minimum of four inhibitor concentrations within 20% of the 50% point.

[2] abbreviates: spectrophotometric, 340 nm, 30 °C, pH 7.4, read-out: IC50 thymidylate synthase.

Where two headings read alike, the source gives them in different places.

Usually IC50 stands for the concentration that gives 50% inhibition. As usually defined, the melting point is the temperature of the solid-liquid transition.

Sequence of thymidylate synthase (TS) (P04818 whole entry): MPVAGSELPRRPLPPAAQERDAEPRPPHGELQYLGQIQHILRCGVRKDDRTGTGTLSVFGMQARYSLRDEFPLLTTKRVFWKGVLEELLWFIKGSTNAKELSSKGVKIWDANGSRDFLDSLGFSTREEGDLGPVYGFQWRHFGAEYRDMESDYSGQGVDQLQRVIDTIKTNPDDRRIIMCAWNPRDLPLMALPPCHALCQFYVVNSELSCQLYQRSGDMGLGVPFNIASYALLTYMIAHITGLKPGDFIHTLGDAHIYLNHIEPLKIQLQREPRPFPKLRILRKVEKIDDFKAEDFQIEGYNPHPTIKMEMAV

`COC(=O)c1ccccc1-n1cc(CSc2nnc(-c3ccccc3)o2)nn1` [Compound 13, Methyl 2-(4-((5-phenyl–1,3,4-oxadiazol-2-ylthio)methyl)-1H–1,2,3-triazol–1-yl)benzoate]: the melting point lay within 119 to 120 °C. In addition, half-maximal inhibition in the series on MCF-7 cells (IC50) required 1.26 µM. The “fold activity compared to tamoxifen, MCF-7” value in the series with MCF-7 cells (ratio of IC50, MCF-7) is “five times”. For the same compound, the IC50 with HEK 293 cells was more than 50 µM. For the same compound, the 50% inhibitory concentration (IC50) with HCT-116 cells (Homo sapiens, HCT-116, 72 h) worked out at 17.3 µM. Moreover, in the series on HCT-116 cells, the “fold activity compared to 5-fluorouracil, HCT-116” value came out at 1.9 fold and the “fold activity compared to tamoxifen, HCT-116” value stood at 1.5 fold. In addition, the “fold activity compared to pemetrexed, TS” value in series [1] was determined as 1.5 fold. Moreover, the IC50 in series [1] (setting [2]) was 4.38 µM.

Take `Clc1ccc(-n2cc(CSc3nnc(-c4ccccc4)o3)nn2)cc1` [Compound 9, 4-((5-phenyl–1,3,4-oxadiazol-2-ylthio)methyl)–1-(4-chlorophenyl)-1H–1,2,3-triazole]: the melting point fell in the range of 200 to 202 °C. For the same compound, the half-inhibitory concentration (IC50) in the series on MCF-7 cells was determined as 34.4 µM. For the same compound, half-maximal inhibition with HCT-116 cells (Homo sapiens, HCT-116, 72 h) (IC50) required 36.7 µM.

The compound `O=C(O)c1ccccc1-n1cc(CSc2nnc(-c3ccccc3)o2)nn1` [Compound 14, 2-(4-((5-phenyl–1,3,4-oxadiazol–2-ylthio)methyl)-1H–1,2,3-triazol–1-yl)benzoic acid] displayed a melting point of 119 to 120 °C. The compound further returned an IC50 in the series with MCF-7 cells of 40.6 µM. Moreover, the 50% inhibitory concentration (IC50) in the series with HCT-116 cells (Homo sapiens, HCT-116, 72 h) is 46.8 µM.

In the case of `c1ccc(-c2nnc(SCc3cn(-c4ccccc4)nn3)o2)cc1` [Compound 12, 4-((5-phenyl–1,3,4-oxadiazol–2-ylthio)methyl)-1-phenyl-1H–1,2,3-triazole], the IC50 is 5.8 µM with MCF-7 cells; more than 50 µM in the series with HEK 293 cells; 14.8 µM in the series with HCT-116 cells (Homo sapiens, HCT-116, 72 h); 2.52 µM in series [1] (setting [2]). In addition, the “fold activity compared to 5-fluorouracil, MCF-7” value in the series with MCF-7 cells (ratio of IC50, MCF-7) was “four-fold”. In addition, the “fold activity compared to 5-fluorouracil, HCT-116” value with HCT-116 cells was determined as 2.2 fold. Moreover, in the series on HCT-116 cells, the “fold activity compared to tamoxifen, HCT-116” value amounted to 1.7 fold. Also, the “fold activity compared to pemetrexed, TS” value in series [1] was determined as 2.6 fold.

Take `Clc1ccccc1-n1cc(CSc2nnc(-c3ccccc3)o2)nn1` [Compound 8, 4-((5-phenyl–1,3,4-oxadiazol–2-ylthio)methyl)–1-(2-chlorophenyl)-1H–1,2,3-triazole]: the melting point lay in the range of 111 to 112 °C. The compound further registered a half-maximal inhibitory concentration (IC50) in the series with MCF-7 cells of 73.3 µM. This compound also yielded an IC50 in the series with HCT-116 cells (Homo sapiens, HCT-116, 72 h) of more than 100 µM. The IC50 in the series with HCT-116 cells was determined as 108 µM.

In series [1], `Nc1nc2[nH]cc(CCc3ccc(C(=O)N[C@@H](CCC(=O)O)C(=O)O)cc3)c2c(=O)[nH]1` [PTX, pemetrexed, reference compound] returned a 50% inhibitory concentration (IC50) of 6.75 µM.

Turning to `Cc1ccccc1-n1cc(CSc2nnc(-c3ccccc3)o2)nn1` [Compound 7, 4-((5-phenyl–1,3,4-oxadiazol-2-ylthio)methyl)–1-o-tolyl-1H–1,2,3-triazole], the IC50 came to 30.7 µM with MCF-7 cells and 34.3 µM with HCT-116 cells (Homo sapiens, HCT-116, 72 h).

Consider `O=c1[nH]cc(F)c(=O)[nH]1` [Compound 5-FU, 5-fluorouracil, reference compound], for which the IC50 with MCF-7 cells worked out at 24.7 µM; in the series with HCT-116 cells (Homo sapiens, HCT-116, 72 h) it was 32.7 µM.

Regarding `O=[N+]([O-])c1ccc(-n2cc(CSc3nnc(-c4ccccc4)o3)nn2)cc1` [Compound 11, 4-((5-phenyl–1,3,4-oxadiazol–2-ylthio)methyl)–1-(4-nitrophenyl)-1H–1,2,3-triazole], the melting point is 202 to 204 °C. Also, half-maximal inhibition in the series with MCF-7 cells (IC50) was put at 98.2 µM. For the same compound, the IC50 in the series on HCT-116 cells (Homo sapiens, HCT-116, 72 h) is more than 100 µM. The compound further had a concentration for half-maximal inhibition (IC50) in the series on HCT-116 cells of 102 µM.

Take `Cc1ccc(-n2cc(CSc3nnc(-c4ccccc4)o3)nn2)cc1` [Compound 6, 4-((5-phenyl–1,3,4-oxadiazol–2-ylthio)methyl)-1-p-tolyl–1H-1,2,3-triazole]: the half-inhibitory concentration (IC50) in the series on MCF-7 cells came to 79.8 µM; in the series with HCT-116 cells (Homo sapiens, HCT-116, 72 h) it was 89.2 µM.

Regarding `Brc1cccc(-n2cc(CSc3nnc(-c4ccccc4)o3)nn2)c1` [Compound 10, 4-((5-phenyl–1,3,4-oxadiazol–2-ylthio)methyl)-1-(3-bromophenyl)-1H–1,2,3-triazole], the melting point is 146 to 148 °C. Also, in the series with MCF-7 cells, the IC50 was determined as 25.9 µM. The compound further registered an IC50 with HCT-116 cells (Homo sapiens, HCT-116, 72 h) of 32.7 µM.

For the origin of these results see publication PMC7696185, “Synthesis of New 1, 3, 4-Oxadiazole-Incorporated 1, 2, 3-Triazole Moieties as Potential Anticancer Agents Targeting Thymidylate Synthase and Their Docking Studies” (Pharmaceuticals, 2020).
